# Earlier results as cited in patent US20200147118A1, “COMPOSITIONS AND METHODS FOR DETECTION, RISK ASSESSMENT AND TREATMENT OF DIABETES, OBESITY, AND INFLAMMATION” (OTTAWA HEART INSTITUTE RESEARCH CORPORATION, priority 2018, published 2020).
# System: iNKTs
# Conditions: obese mice, WT vehicle vs WT αGalCer, dataset GSE36032
smiles,measurement,value
CCCCCCCCCCCCCCCCCCCCCCCCCC(=O)N[C@@H](CO[C@H]1O[C@H](CO)[C@H](O)[C@H](O)[C@H]1O)[C@H](O)[C@H](O)CCCCCCCCCCCCCC [αGalCer],E4bp4 expression in adipose tissue,increases
same,Ripk1 expression in adipose tissue,reduces
